For orientation: IC50 means the concentration that gives 50% inhibition.

In this experiment the test system is gamma-secretase. Description: Gamma-secretase activity in membranes of 293 cells expressing C99 (SPC99-Ion), Aβ 40 / Aβ 42 by ECL immunoassay. The class given is biochemical. The following applies: gamma-secretase membrane assay; single values listed after 'within the range of about 1 nM to about 25 nM, i.e.'. The protocol: Gamma-secretase activity was determined as described by Zhang et al. (Biochemistry, 40 (16), 5049-5055, 2001), which is herein incorporated by reference. Activity is expressed either as a percent inhibition or as the concentration of compound producing 50% inhibition of enzyme activity.
Reagents. Antibodies W02, G2-10, and G2-11 were obtained from Dr. Konrad Beyreuther (University of Heidelberg, Heidelberg, Germany). W02 recognizes residues 5-8 of Aβ peptide, while G2-10 and G2-11 recognize the specific C-terminal structure of Aβ 40 and Aβ42, respectively. Biotin-4G8 was purchased from Senetec (St. Louis, Mo.). All tissue culture reagents used in this work were from Life Technologies, Inc., unless otherwise specified. Pepstatin A was purchased from Roche Molecular Biochemicals; DFK167 was from Enzyme Systems Products (Livermore, Calif.).
cDNA Constructs, Tissue Culture, and Cell Line Construction. The construct SPC99-Ion, which contains the first 18 residues and the C-terminal 99 amino acids of APP carrying the London mutation, has been described (Zhang, L., Song, L., and Parker, E. (1999) J. Biol. Chem. 274, 8966-8972). Upon insertion into the membrane, the 17 amino acid signal peptide is processed, leaving an additional leucine at the N-terminus of Aβ. SPC99-Ion was cloned into the pcDNA4/TO vector (Invitrogen) and transfected into 293 cells stably transfected with pcDNA6/TR, which is provided in the T-REx system (Invitrogen). The transfected cells were selected in Dulbecco's modified Eagle's media (DMEM) supplemented with 10% fetal bovine serum, 100 units/mL penicillin, 100 µg/mL streptomycin, 250 µg/mL zeocin, and 5 µg/mL blasticidin (Invitrogen). Colonies were screened for Aβ production by inducing C99 expression with […] tetracycline for 16-20 h and analyzing conditioned media with a sandwich immunoassay (see below). One of the clones, designated as pTRE.15, was used in these studies.
Membrane Preparation. C99 expression in cells was induced with […] tetracycline for 20 h. The cells were pretreated with […] 12-myristate 13-acetate (PMA) and […] brefeldin A (BFA) for 5-6 h at 37° C. before harvesting. The cells were washed 3 times with cold phosphate-buffered saline (PBS) and harvested in buffer A containing 20 mM Hepes (pH 7.5), 250 mM sucrose, 50 mM KCl, 2 mM EDTA, 2 mM EGTA, and Complete protease inhibitor tablets (Roche Molecular Biochemicals). The cell pellets were flash-frozen in liquid nitrogen and stored at −70 C before use.
To make membranes, the cells were resuspended in buffer A and lysed in a nitrogen bomb at 600 psi. The cell lysate was centrifuged at 1500 g for 10 min to remove nuclei and large cell debris. The supernatant was centrifuged at 100000 g for 1 h. The membrane pellet was resuspended in buffer A plus 0.5 M NaCl, and the membranes were collected by centrifugation at 200000 g for 1 h. The salt-washed membrane pellet was washed again in buffer A and centrifuged at 100000 g for 1 h. The final membrane pellet was resuspended in a small volume of buffer A using a Teflon-glass homogenizer. The protein concentration was determined, and membrane aliquots were flash-frozen in liquid nitrogen and stored at −70° C.
γ-Secretase Reaction and AβAnalysis. To measure γ-secretase activity, membranes were incubated at 37° C. for 1 h in 50 μL of buffer containing 20 mM Hepes (pH 7.0) and 2 mM EDTA. At the end of the incubation, Aβ 40 and Aβ 42 were measured using an electrochemiluminescence (ECL)-based immunoassay. Aβ 40 was identified with antibody pairs TAG-G2-10 and biotin-W02, while Aβ 42 was identified with TAG-G2-11 and biotin-4G8. The ECL signal was measured using an ECL-M8 instrument (IGEN International, Inc.) according to the manufacturer's instructions. The data presented were the means of the duplicate or triplicate measurements in each experiment. The characteristics of γ-secretase activity described were confirmed using more than five independent membrane preparations.
Turning to `O=C(CC1([C@H]2COC[C@@H](C3CC3)N2S(=O)(=O)c2ccc(Cl)cc2)CC1)N1C2CCC1CC(N1CCCCC1)C2` (single isomer, unassigned) [Example 142], it took 12.4 nM to reach half-maximal inhibition (IC50).

`O=C(OC[C@H]1COC[C@@H](c2cc(F)cc(F)c2)N1S(=O)(=O)c1ccc(Cl)cc1)N1CCC(N2CCCCC2)CC1` [Example 2]: the IC50 was determined as 6.8 nM.

Take `CCC[C@@H]1COC[C@H](C2(OC(=O)N3CC4CCC(C3)N4CCO)CC2)N1S(=O)(=O)c1ccc(Cl)cc1` [Example 15]: the IC50 is 3.6 nM.

On to `CC(C)(CO)N1CCN(C(=O)OC2(C3COCC(c4cc(F)cc(F)c4)N3S(=O)(=O)c3ccc(Cl)cc3)CC2)CC1` (stereo not shown) [Example 16, 4-(2-Hydroxy-1,1-dimethyl-ethyl)-piperazine-1-carboxylic acid 1-[4-(4-chloro-benzenesulfonyl)-5-(3,5-difluoro-phenyl)-morpholin-3-yl]-cyclopropyl ester], for which the IC50 came to 1.4 nM.

Consider `O=C(OC[C@H]1COC[C@@H](C2CC2)N1S(=O)(=O)c1ccc(Cl)cc1)N1CCC(N2CCCCC2)CC1` [Example 30], for which half-maximal inhibition (IC50) required 11.1 nM.

With `CC(C)(CO)N1CCN(C(=O)OC2(C3COCC(C4CC4)N3S(=O)(=O)c3ccc(Cl)cc3)CC2)CC1` (stereo not shown) [Example 35, 4-(2-Hydroxy-1,1-dimethyl-ethyl)-piperazine-1-carboxylic acid 1-[4-(4-chloro-benzenesulfonyl)-5-cyclopropyl-morpholin-3-yl]-cyclopropyl ester], half-maximal inhibition (IC50) required 9.5 nM.

In turn, `CCCC1(O)CCN(C(=O)OC2([C@H]3COC[C@@H](C4CC4)N3S(=O)(=O)c3ccc(Cl)cc3)CC2)C1` (stereo partly shown) [Example 36] returned an IC50 of 13.3 nM.

`O=C(OC1([C@H]2COC[C@@H](C3CC3)N2S(=O)(=O)c2ccc(Cl)cc2)CC1)N1CC2CCC(C1)N2CCO` [Example 43] displayed an IC50 of 7.9 nM.

The compound `O=C(O)CC1CCN(C(=O)OC2([C@H]3COC[C@@H](C4CC4)N3S(=O)(=O)c3ccc(Cl)cc3)CC2)CC1` [Example 47] had an IC50 of 24.5 nM.

As for `CN1CC2CCC(C1)N2C(=O)OC1([C@H]2COC[C@@H](C3CC3)N2S(=O)(=O)c2ccc(Cl)cc2)CC1` [Example 51], the IC50 came to 6.2 nM.

As for `CN(C)CC(=O)N1C2CCC1CN(C(=O)OC1([C@H]3COC[C@@H](C4CC4)N3S(=O)(=O)c3ccc(Cl)cc3)CC1)C2` [Example 59], the IC50 stood at 8.9 nM.

In turn, `C[C@@H]1OC[C@H](C2(OC(=O)N3CC[C@@H](O)C3)CC2)N(S(=O)(=O)c2ccc(Cl)cc2)[C@@H]1C1CC1` [Example 69] yielded an IC50 of 5.2 nM.

Turning to `C[C@H]1OC[C@H](C2(OC(=O)N3CC4CCC(C3)N4CCO)CC2)N(S(=O)(=O)c2ccc(Cl)cc2)[C@@H]1C1CC1` [Example 75], the midpoint of inhibition, the IC50, lay at 0.9 nM.

With `CC(C)[C@@H]1COC[C@H](C2(OC(=O)N3CCN(C(C)(C)CO)CC3)CC2)N1S(=O)(=O)c1ccc(Cl)cc1` [Example 78], the midpoint of inhibition, the IC50, lay at 3.9 nM.

For `C[C@H]1N(S(=O)(=O)c2ccc(Cl)cc2)[C@@H](C2(OC(=O)N3CCC(C(N)=O)CC3)CC2)COC1(C)C` [Example 88], inhibition was half-maximal at 6.7 nM (IC50).

In turn, `CC(C)(CO)N1CCN(C(=O)OC2(C3COCC(CC4CC4)N3S(=O)(=O)c3ccc(Cl)cc3)CC2)CC1` (stereo not shown) [Example 94, 4-(2-Hydroxy-1,1-dimethyl-ethyl)-piperazine-1-carboxylic acid 1-[4-(4-chloro-benzenesulfonyl)-5-cyclopropylmethyl-morpholin-3-yl]-cyclopropyl ester] returned an IC50 of 2.1 nM.

Take `O=C(OC1([C@H]2COC[C@@H](CC3CC3)N2S(=O)(=O)c2ccc(Cl)cc2)CC1)N1CC2CC1CN2CCO` (stereo partly shown) [Example 98]: inhibition was half-maximal at 3.6 nM (IC50).

Take `O=C(OC1([C@H]2COC[C@@H](CC3CC3)N2S(=O)(=O)c2ccc(Cl)cc2)CC1)N1CC2CCC(C1)N2CCO` [Example 99]: it took 0.9 nM to reach half-maximal inhibition (IC50).

Take `CN1CCN(C(=O)OC2([C@H]3COC[C@@H](CC4CC4)N3S(=O)(=O)c3ccc(Cl)cc3)CC2)CC1=O` [Example 110]: the IC50 is 5.7 nM.

In turn, `CN1CCCN(C(=O)OC2([C@H]3COC[C@@H](CC4CC4)N3S(=O)(=O)c3ccc(Cl)cc3)CC2)CC1` [Example 122] had a half-maximal inhibitory concentration (IC50) of 4.2 nM.

On to `O=C(OC1([C@H]2COC[C@@H](CC3CC3)N2S(=O)(=O)c2cc(F)cc(F)c2)CC1)N1CC2CCC(C1)N2` [Example 135], for which the IC50 was 4.2 nM.

With `O=C(C(O)C1([C@H]2COC[C@@H](C3CC3)N2S(=O)(=O)c2ccc(Cl)cc2)CC1)N1CC2CCC(C1)N2` (stereo partly drawn) [Example 146, alpha-[1-[4-[(4-chlorophenyl)sulfonyl]-5(r)-cyclopropyl-3(s)-morpholinyl]cyclopropyl]-beta-oxo-3,8-diazabicyclo[3.2.1]octane-3-ethanol], the IC50 came to 10.1 nM.

Values taken from patent publication US7998958B2, “Substituted N-arylsulfonylheterocyclic amines as gamma-secretase inhibitors” (Schering Corporation, priority 2004, dated 2011).
